# Where no end group is shown, it is not given here.
# Assay: Peptide quantification by mass spectrometry after incubation in cell-free supernatant of Rhodanobacter R179
# Format: in vitro ADME
# Conditions: axenic XVM2 medium, 1h, 1 µM AtPep1, NHS-acetate modified, LC-MS [M+2H]
# Protocol: Elicitors were also supplemented into the medium prior to solidification at a final concentration of 1 µM. The flg22 ([…]) and AtPep1 ([…]) peptides were synthesized by EZbiolab. elf18^R179 (Ac-[…]) and elf18 (Ac-[…]) were synthesized by GenScript and EZbiolab, respectively. For inoculation with the bacterial supernatant, bacteria were cultivated overnight in XVM2 minimal medium (20 mM NaCl, 10 mM (NH4)2SO4, 5 mM MgSO4, 1 mM CaCl2, 0.16 mM KH2PO4, 0.32 mM K2HPO4, 0.01 mM FeSO4, 10 mM fructose, 10 mM sucrose, 0.03% Casamino acids, pH 6.7)[76] to a final concentration of OD600 = 0.4. Bacteria were pelleted by centrifugation (11,600 g, 2 min), and the supernatant was sterile-filtered using filter units with MF-Millipore membrane (0.22 µm; Millex). The supernatant was incubated in boiling water for 30 min for heat treatment. Then, 25 ml of 1× MS with 20 g l^−1 Bacto Agar was mixed with 25 ml of supernatant prior to medium solidification and poured into square petri dishes. Sterilized seeds were placed on solidified agar in square petri dishes and vertically incubated for 14 days.
# Bacterial supernatants were prepared as described in ‘Agar-based cultivation of axenic plants and co-cultivation with bacteria, bacterial supernatants and elicitors’. Here, additionally, the peptides dRGF1 (DYSNPGHHP-Hyp-RHN) and PSY1 (D-Y(SO3H)-[…]-Hyp-Hyp-S) synthesized by Scilight Peptide were incubated for 1 h with 1 µM of peptides in a plant cultivation light chamber (day-light condition; see ‘Plant cultivation conditions’), and the samples were frozen at −20 °C until further processing. For the investigation of AtPep1 degradation, the AtPep1 peptide was first modified by acetylation (six to seven times). To this end, 100-µl aliquots of peptides were treated with 10 µl of NHS acetate solution (1 M NHS acetate in 50% ACN/PBS) and incubated for 30 min with shaking. The reaction was quenched by the addition of 100 µl of 100 mM Tris-HCl (pH 8.5) and incubated for 10 min. For comparison of the non-acetylated peptides with the above-described modified AtPep1 peptides, aliquots of the non-acetylated peptides were processed as described above, but without the modifying NHS reaction. To this end, 100-µl aliquots of the sample were mixed with 100 µl of PBS buffer (137 mM NaCl, 2.7 mM KCl, 10 mM Na2HPO4, 1.8 mM KH2PO4; pH 7.4). The samples were then further diluted with 100 µl of 100 mM Tris-HCl (pH 8.5) and incubated for 10 min. All samples were acidified with 5 µl of TFA and desalted using StageTips with C18 Empore disk membranes (3M)[109]. The samples were dried in a vacuum evaporator and dissolved in 10 µl of 2% ACN (0.1% TFA for analysis).
# The samples were analysed using an EASY-nLC 1200 (Thermo Fisher) coupled to a QExactive Plus mass spectrometer (Thermo Fisher). Peptides were separated on 16-cm frit-less silica emitters (New Objective, 75 µm inner diameter), packed in-house with reversed-phase ReproSil-Pur C18 AQ 1.9 µm resin (Dr. Maisch). Peptides were loaded on the column and eluted for 50 min using a segmented linear gradient of 5% to 95% solvent B (0 min, 5% B; 0–5 min, 15% B; 5–35 min, 50% B; 35–45 min, 95% B; 45–50 min, 95% B) (solvent A: 0% ACN, 0.1% FA; solvent B: 80% ACN, 0.1% FA) at a flow rate of 300 nl min^−1. Mass spectra were acquired in data-dependent acquisition mode with a TOP10 method. Mass spectrometry spectra were acquired in the Orbitrap analyser with a mass range of 300–1,500 m/z at a resolution of 70,000 full width at half maximum (FWHM) and a target value of 3 × 10^6 ions. Precursors were selected with an isolation window of 1.3 m/z. Higher-energy collision dissociation (HCD) fragmentation was performed at a normalized collision energy of 25. Tandem mass spectrometry (MS/MS) spectra were acquired with a target value of 5 × 10^5 ions at a resolution of 17,500 FWHM, a maximum injection time of 85 ms and a fixed first mass of 100 m/z. […]
sequence,measurement,setting,value
ATKVKAKQRGKEKVSSGRPGQHN [AtPep1],Total_area MS1 of identified AtPep1 cleavage product (acetylated […]),replicate 2,0.00E+00
same,Total_area MS1 of identified AtPep1 cleavage product (acetylated […]),replicate 3,0.00E+00

# Reference: article PMC11928319 (Nature Plants, 2025)
